Where two headings read alike, the source gives them in different places. Positions of bridges follow the written chain, without caps; N, C: chain ends. Non-standard residues stand in square brackets, D forms with d. Residues, ends and D or L forms follow the SMILES beside them. Groups on a side chain read outwards from the residue. Chains are numbered I, II in the order given. *: point of attachment. X2 = OC[C@H]1O[C@@H](O[C@H]2[C@H](O)[C@@H](O)[C@H](*)O[C@@H]2CO)[C@H](O)[C@@H](O)[C@H]1O; X5 = CC(C)(C)[Si](F)(c1ccc(C[N+](C)(C)CC(=O)*)cc1)C(C)(C)C; DOTA = O=C(O)CN1CCN(CC(=O)O)CCN(CC(=O)*)CCN(CC(=O)O)CC1; dTyr(3-I) = N[C@H](Cc1ccc(O)c(I)c1)C(=O)O; 2Nal = N[C@@H](Cc1ccc2ccccc2c1)C(=O)O; dNMeOrn = CN[C@H](CCCN)C(=O)O; d(hCys) = N[C@H](CCS)C(=O)O; 4Amb = NCc1ccc(C(=O)O)cc1; 4Abz = Nc1ccc(C(=O)O)cc1; dDap = NC[C@@H](N)C(=O)O; Ahx = NCCCCCC(=O)O
Columns and labels:
[1] = Biodistribution in Jurkat tumor-bearing CB-17 SCID mice; format: in vivo; details: female, CB-17 SCID, mouse, in vivo, iv, total radioactivity
Procedure: All animal experiments were conducted in accordance with general animal welfare regulations in Germany and the institutional guidelines for the care and use of animals. To establish tumor xenografts, Jurkat cells (2-3×10^7 cells) were suspended in a mixture of Gibco's RPMI 1640 medium and Matrigel (1/1; v/v) from BD Biosciences (Heidelberg, Germany), and inoculated subcutaneously onto the right shoulder of 6-10 weeks old CB17-SCID mice from either Charles River GmbH (Sulzfeld, Germany) or the in-house mouse breeding facility. Mice were used when tumors had grown to a diameter of 5-8 mm (4-10 weeks after inoculation).
Approximately 0.5-20 MBq (0.02-0.20 nmol) of the ^125I-, ^177Lu-, ^99mTc-, ^18F- or ^68Ga-labeled ligand were injected into the tail vein of Jurkat tumor-bearing CB-17 SCID mice and the animals sacrificed after the respective biodistribution time. Selected organs were removed, weighted and measured in a γ-counter.

[2] = Octanol/PBS partition coefficient (logD7.4); format: physicochemical; details: n-octanol/PBS pH 7.4, radiolabeled compound
Procedure: The tubes were vortexed at maximum speed for 3 min to ensure equilibrium before centrifugation at 15.000×g for 5 min on a Biofuge 15 from Heraeus Holding GmbH (Osterode, Germany). An aliquot of 100 μL of each fraction was measured in the γ-counter and the log D7.4 calculated as follows: […]

[3] = system: CXCR4-expressing Chem_1 cells; experiment: Determination of internalization, dual tracer with 125I-Fc-131; format: cell-based; details: for Cell-bound [%] / Internalized [%]: of total cellular activity
Procedure: CXCR4-expressing Chem_1 cells were grown in DMEM-F12 medium supplemented with 10 vol % FBS, 1 vol % NEA, 1 vol % PenStrep and 1 vol % HEPES (1.00 M). Cells were maintained in a 5% CO2 atmosphere at 37° C.
For in vitro experiments, cells were harvested by removal of the medium and incubation of the cells with trypsine/EDTA (0.05%/0.02%; w/v) for 30 in at 37° C.
Each well (n=3 for every time point) was either treated with 25 μL DMEM-F12 (+5 wt % BSA) or 25 μL of an AMD3100 stock (1 mM in H2O) for blockage of the receptors.
The experiment was stopped by placing the well-plate on ice and removing the supernatant. The cells were washed with 250 μL cold HBSS and the both fractions for each well combined, comprising the amount of unbound radioligand.
The supernatant was removed, the cells washed with cold HBSS and the respective fractions combined to obtain the amount of surface-bound radioligand.
The cells were then incubated with 300 μL NaOH (1.00 M in H2O) for at least 30 at r.t. before the supernatant was removed. The well was washed with another 300 μL NaOH and the fractions combined that contain the amount of internalized radioligand.
The three different fractions were subjected to activity measurement in the γ-counter, measuring the activity of the radionuclide used for the labeling of the peptide under investigation first. […] Data was corrected for non-specific internalization and referred to the specific internalization of the standard ligand

| Structure (SMILES) | tissue uptake at 1 h ([1]; % iD/g Blood) [%ID/g] | tissue uptake at 1 h ([1]; % iD/g Bone) [%ID/g] | tissue uptake at 1 h ([1]; % iD/g Heart) [%ID/g] | tissue uptake at 1 h ([1]; % iD/g Intestine) [%ID/g] | tissue uptake at 1 h ([1]; % iD/g Kidney) [%ID/g] | tissue uptake at 1 h ([1]; % iD/g Liver) [%ID/g] | tissue uptake at 1 h ([1]; % iD/g Lung) [%ID/g] | tissue uptake at 1 h ([1]; % iD/g Muscle) [%ID/g] | tissue uptake at 1 h ([1]; % iD/g Pancreas) [%ID/g] | tissue uptake at 1 h ([1]; % iD/g Spleen) [%ID/g] | tissue uptake at 1 h ([1]; % iD/g Stomach) [%ID/g] | tissue uptake at 1 h ([1]; % iD/g Tumor) [%ID/g] | logD7.4 [2] | further results |
| --- | --- | --- | --- | --- | --- | --- | --- | --- | --- | --- | --- | --- | --- | --- |
| C[C@@H](NC(=O)[C@@H](CCCNC(=N)N)NC(=O)[C@@H](CN)NC(=O)CN1CCN(CC(=O)O)CCN(CC(=O)O)CCN(CC(=O)O)CC1)C(=O)NCc1ccc(C(=O)NCCC[C@@H]2C(=O)N[C@@H](CCCNC(=N)N)C(=O)N[C@@H](Cc3ccc4ccccc4c3)C(=O)NCC(=O)N[C@H](Cc3ccc(O)cc3)C(=O)N2C)cc1 [CXCR4-DOTA-1 [Lu]] (cyclo([dY][dNMeOrn]([4Amb-dA-dR-dDap-DOTA])R[2Nal]G)) | 1.24 | 0.72 | 0.73 | 0.67 | 18.8 | 11 | 2.16 | 0.22 | 0.39 | 3.19 | 1.06 | 5.98 |  |  |
| C[C@@H](NC(=O)[C@@H](CCCNC(=N)N)NC(=O)[C@@H](CN)NC(=O)CN1CCN(CC(=O)O)CCN(CC(=O)O)CCN(CC(=O)O)CC1)C(=O)Nc1ccc(C(=O)NCCC[C@@H]2C(=O)N[C@@H](CCCNC(=N)N)C(=O)N[C@@H](Cc3ccc4ccccc4c3)C(=O)NCC(=O)N[C@H](Cc3ccc(O)cc3)C(=O)N2C)cc1 [CXCR4-DOTA-3 [Ga]] (cyclo([dY][dNMeOrn]([4Abz-dA-dR-dDap-DOTA])R[2Nal]G)) |  |  |  |  |  |  |  |  |  |  |  |  | −3.35 ± 0.08 (5) |  |
| C[C@@H](NC(=O)[C@@H](CCCNC(=N)N)NC(=O)[C@@H](CN)NC(=O)CN1CCN(CC(=O)O)CCN(CC(=O)O)CCN(CC(=O)O)CC1)C(=O)Nc1ccc(C(=O)NCCC[C@@H]2C(=O)N[C@@H](CCCNC(=N)N)C(=O)N[C@@H](Cc3ccc4ccccc4c3)C(=O)NCC(=O)N[C@H](Cc3ccc(O)c(I)c3)C(=O)N2C)cc1 [CXCR4-DOTA-4 [Ga]] (cyclo([dTyr(3-I)][dNMeOrn]([4Abz-dA-dR-dDap-DOTA])R[2Nal]G)) |  |  |  |  |  |  |  |  |  |  |  |  | −2.65 ± 0.22 (6) |  |
| C[C@@H](NC(=O)[C@@H](CCCNC(=N)N)NC(=O)[C@@H](CNC(=O)c1ccc([Si](F)(C(C)(C)C)C(C)(C)C)cc1)NC(=O)CC[C@H](C(=O)O)N1CCN(CC(=O)O)CCN(CC(=O)O)CCN(CC(=O)O)CC1)C(=O)Nc1ccc(C(=O)NCCC[C@@H]2C(=O)N[C@@H](CCCNC(=N)N)C(=O)N[C@@H](Cc3ccc4ccccc4c3)C(=O)NCC(=O)N[C@H](Cc3ccc(O)cc3)C(=O)N2C)cc1 [CXCR4-SiFA-1 [Ga]] |  |  |  |  |  |  |  |  |  |  |  |  | 0.66 ± 0.01 (8) |  |
| C[C@@H](NC(=O)[C@@H](CCCNC(=N)N)NC(=O)[C@@H](CN)NC(=O)CCCCCNC(=O)[C@@H](CNC(=O)CN1CCN(CC(=O)O)CCN(CC(=O)O)CCN(CC(=O)O)CC1)NC(=O)[C@@H](CCS[C@@H]1O[C@H](CO)[C@@H](O[C@@H]2O[C@H](CO)[C@H](O)[C@H](O)[C@H]2O)[C@H](O)[C@H]1O)NC(=O)C[N+](C)(C)Cc1ccc([Si](F)(C(C)(C)C)C(C)(C)C)cc1)C(=O)Nc1ccc(C(=O)NCCC[C@@H]2C(=O)N[C@@H](CCCNC(=N)N)C(=O)N[C@@H](Cc3ccc4ccccc4c3)C(=O)NCC(=O)N[C@H](Cc3ccc(O)cc3)C(=O)N2C)cc1 [CXCR4-SiFA-7 [Ga]] (I: X5-[d(hCys)](X2)[dDap](DOTA)[Ahx][dDap][dR][dA][4Abz] / II: cyclo([dY][dNMeOrn]R[2Nal]G); amide I:C-II:2) |  |  |  |  |  |  |  |  |  |  |  |  |  | tissue uptake at 1 h ([1]; Blood, 1 h p.i., Jurkat xenograft, CB-17 SCID female mice, read-out: % iD/g Blood): 0.85 %ID/g; tissue uptake at 1 h ([1]; Bone, 1 h p.i., Jurkat xenograft, CB-17 SCID female mice, read-out: % iD/g Bone): 2.89 %ID/g; tissue uptake at 1 h ([1]; Heart, 1 h p.i., Jurkat xenograft, CB-17 SCID female mice, read-out: % iD/g Heart): 1.13 %ID/g; tissue uptake at 1 h ([1]; Intestine, 1 h p.i., Jurkat xenograft, CB-17 SCID female mice, read-out: % iD/g Intestine): 0.81 %ID/g; tissue uptake at 1 h ([1]; Kidney, 1 h p.i., Jurkat xenograft, CB-17 SCID female mice, read-out: % iD/g Kidney): 11.1 %ID/g; tissue uptake at 1 h ([1]; Liver, 1 h p.i., Jurkat xenograft, CB-17 SCID female mice, read-out: % iD/g Liver): 53.5 %ID/g; tissue uptake at 1 h ([1]; Lung, 1 h p.i., Jurkat xenograft, CB-17 SCID female mice, read-out: % iD/g Lung): 2.13 %ID/g; tissue uptake at 1 h ([1]; Muscle, 1 h p.i., Jurkat xenograft, CB-17 SCID female mice, read-out: % iD/g Muscle): 0.26 %ID/g; tissue uptake at 1 h ([1]; Pancreas, 1 h p.i., Jurkat xenograft, CB-17 SCID female mice, read-out: % iD/g Pancreas): 0.51 %ID/g; tissue uptake at 1 h ([1]; Spleen, 1 h p.i., Jurkat xenograft, CB-17 SCID female mice, read-out: % iD/g Spleen): 6.96 %ID/g; tissue uptake at 1 h ([1]; Stomach, 1 h p.i., Jurkat xenograft, CB-17 SCID female mice, read-out: % iD/g Stomach): 0.63 %ID/g; tissue uptake at 1 h ([1]; Tumor, 1 h p.i., Jurkat xenograft, CB-17 SCID female mice, read-out: % iD/g Tumor): 0.67 %ID/g |
| C[C@@H](NC(=O)[C@@H](CCCNC(=N)N)NC(=O)[C@@H](CN)NC(=O)CCCCCNC(=O)[C@@H](CNC(=O)CN1CCN(CC(=O)O)CCN(CC(=O)O)CCN(CC(=O)O)CC1)NC(=O)CCCCC[N+]1=C(/C=C/C=C/C=C2/N(C)c3ccc(S(=O)(=O)O)cc3C2(C)C)C(C)(C)c2cc(S(=O)(=O)[O-])ccc21)C(=O)Nc1ccc(C(=O)NCCC[C@@H]2C(=O)N[C@@H](CCCNC(=N)N)C(=O)N[C@@H](Cc3ccc4ccccc4c3)C(=O)NCC(=O)N[C@H](Cc3ccc(O)cc3)C(=O)N2C)cc1 [[^natLu]CXCR4-OI-3, metal not drawn] | 1.9 | 1.1 | 1.39 | 0.85 | 35 | 36.3 | 4.28 | 0.33 | 0.44 | 5.94 | 1.43 | 2.13 |  | Internalized in relation to 125I-Fc-131 [%] ([3]; 30 min): 442 ± 12.1%; Cell-bound [%] ([3]; 30 min): 5.39 ± 0.41%; Internalized [%] ([3]; 30 min): 16.5 ± 0.19%; Internalized in relation to 125I-Fc-131 [%] ([3]; 90 min): 540 ± 42.7%; Cell-bound [%] ([3]; 90 min): 5.36 ± 0.47%; Internalized [%] ([3]; 90 min): 25.2 ± 1.08% |
| CN1C(=O)[C@@H](Cc2ccc(O)cc2)NC(=O)CNC(=O)[C@H](Cc2ccc3ccccc3c2)NC(=O)[C@H](CCCNC(=N)N)NC(=O)[C@H]1CCCNC(=O)c1ccc(CNC(=O)CN2CCN(CC(=O)O)CCN(CC(=O)O)CCN(CC(=O)O)CC2)cc1 [^68Ga-Pentixafor, cyclo(D-Tyr^1-D-[NMe](DOTA)-Orn^2Arg^3-Nal^4-Gly^5), metal not drawn, reference compound] (cyclo([dY][dNMeOrn]([4Amb-DOTA])R[2Nal]G)) | 1.29 | 0.48 | 0.56 | 0.43 | 2.75 | 1.59 | 1.57 | 0.19 | 0.14 | 1.48 | 0.51 | 7.58 |  |  |

Reference: patent US20250288704A1, “CXCR4-LIGANDS FOR DIAGNOSTIC AND THERAPEUTIC USE AND PRECURSORS THEREOF” (priority 2021, published 2025)
